Measured values from US6900193B1, “Structural modification of 19-norprogesterone I: 17-α-substituted-11-β-substituted-4-aryl and 21-substituted 19-norpregnadienedione as new antiprogestational agents” (The United States of America as represented by the …, priority 1996, dated 2005).
Marks after values point to notes of the source that are not given here.

Experiments:
[1] = test system: pregnancy (number and condition of conceptuses); assay: Postcoital test; assay type: in vivo, rat; conditions: rat, days 4-6 subcu
[2] = target: T1, glucocorticoid receptor (estrogen-primed rabbit thymus) (Oryctolagus cuniculus, UniProt P59667); assay: Relative binding affinity, glucocorticoid receptor; conditions: Table 2; estrogen-primed rabbit thymus; dexamethasone = 100%
T1 construct: preparation of cytosols for the progesterone and glucocorticoid receptor assays; from tissue; host or cells: thymus of estradiol-primed immature female New Zealand White rabbits (cytosol)
T1 sequence (P59667 1-772): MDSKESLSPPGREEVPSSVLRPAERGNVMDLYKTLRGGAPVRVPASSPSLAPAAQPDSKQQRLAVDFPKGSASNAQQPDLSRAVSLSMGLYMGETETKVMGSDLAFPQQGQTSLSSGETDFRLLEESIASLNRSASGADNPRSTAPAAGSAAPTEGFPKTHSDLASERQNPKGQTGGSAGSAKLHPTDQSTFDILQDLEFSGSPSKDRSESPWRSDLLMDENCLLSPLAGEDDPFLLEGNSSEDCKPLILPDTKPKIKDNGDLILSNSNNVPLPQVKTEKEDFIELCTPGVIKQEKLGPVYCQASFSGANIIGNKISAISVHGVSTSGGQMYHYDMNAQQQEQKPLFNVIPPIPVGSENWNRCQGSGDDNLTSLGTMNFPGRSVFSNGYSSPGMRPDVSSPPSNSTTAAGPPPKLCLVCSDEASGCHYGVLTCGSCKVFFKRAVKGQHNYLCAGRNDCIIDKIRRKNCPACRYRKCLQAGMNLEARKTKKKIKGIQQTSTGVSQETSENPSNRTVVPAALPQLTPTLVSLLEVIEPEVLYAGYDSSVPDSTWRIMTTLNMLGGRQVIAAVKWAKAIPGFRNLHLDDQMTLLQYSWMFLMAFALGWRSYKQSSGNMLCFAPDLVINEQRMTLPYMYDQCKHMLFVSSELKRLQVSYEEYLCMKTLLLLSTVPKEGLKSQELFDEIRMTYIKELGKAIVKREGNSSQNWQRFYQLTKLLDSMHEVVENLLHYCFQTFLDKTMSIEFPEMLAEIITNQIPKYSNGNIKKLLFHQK

[3] = test system: progesterone-induced endometrial proliferation; assay: AntiClauberg test; assay type: in vivo, rabbit; conditions: Table 2, CDB-2914 = 100 (assigned)
Method in brief: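 Immature NZW rabbits were estradiol-primed s.c. for 6 days, then given progesterone 0.8 mg/day s.c. plus compound orally or s.c. for 5 days. Uteri were sectioned and H&E-scored for endometrial glandular proliferation (McPhail). Percent inhibition was calculated per dose versus progesterone-only animals.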

[4] = target: T2, progesterone receptor (estrogen-primed rabbit uterus) (Oryctolagus cuniculus, UniProt P06186); assay: Relative binding affinity, progesterone receptor; conditions: Table 2; estrogen-primed rabbit uterus; progesterone = 100%
T2 construct: preparation of cytosols for the progesterone and glucocorticoid receptor assays; from tissue; host or cells: uterus of estradiol-primed immature female New Zealand White rabbits (cytosol)
T2 sequence (P06186 1-930): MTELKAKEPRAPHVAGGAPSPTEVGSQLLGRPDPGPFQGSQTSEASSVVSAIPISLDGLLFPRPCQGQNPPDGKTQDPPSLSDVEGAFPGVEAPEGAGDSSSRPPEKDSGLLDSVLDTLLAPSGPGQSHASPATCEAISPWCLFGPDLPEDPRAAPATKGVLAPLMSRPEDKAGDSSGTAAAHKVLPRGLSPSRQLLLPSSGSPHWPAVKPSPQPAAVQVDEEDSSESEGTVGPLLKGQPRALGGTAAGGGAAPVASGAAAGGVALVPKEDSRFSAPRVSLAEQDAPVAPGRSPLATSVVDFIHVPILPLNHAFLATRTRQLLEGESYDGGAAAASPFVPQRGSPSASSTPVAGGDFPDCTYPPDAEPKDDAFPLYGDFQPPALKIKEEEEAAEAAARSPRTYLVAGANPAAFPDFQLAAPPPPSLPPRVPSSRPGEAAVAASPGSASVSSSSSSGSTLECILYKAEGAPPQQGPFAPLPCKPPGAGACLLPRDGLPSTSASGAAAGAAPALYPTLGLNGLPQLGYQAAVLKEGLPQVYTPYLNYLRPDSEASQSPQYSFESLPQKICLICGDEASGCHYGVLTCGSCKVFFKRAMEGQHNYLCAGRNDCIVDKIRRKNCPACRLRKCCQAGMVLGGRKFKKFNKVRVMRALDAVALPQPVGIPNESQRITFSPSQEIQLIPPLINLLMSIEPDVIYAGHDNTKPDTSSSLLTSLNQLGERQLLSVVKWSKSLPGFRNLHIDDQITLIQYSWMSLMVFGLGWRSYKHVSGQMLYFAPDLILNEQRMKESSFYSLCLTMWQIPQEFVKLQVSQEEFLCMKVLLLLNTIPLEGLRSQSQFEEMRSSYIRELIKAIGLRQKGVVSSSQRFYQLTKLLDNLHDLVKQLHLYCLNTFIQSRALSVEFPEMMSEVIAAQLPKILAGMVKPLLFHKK

SMILES	Postcoital MED100 (*) [1]	BINDING AFFINITY Glucocortic [2] [%]	BIOLOGICAL ACTIVITY antiClauberg ([3]; oral)	BINDING AFFINITY Progester [4] [%]	BIOLOGICAL ACTIVITY antiClauberg (subcu) ([3]; subcutaneous)
CCC(=O)OC1(C(C)=O)CCC2C3CCC4=CC(=O)CCC4=C3C(c3ccc(N(C)C)cc3)CC21C (stereo not drawn) [Compound 69C, 17α-Propionoxy-11β-[4-(N,N-dimethylamino)phenyl]-19-norpregna-4,9-diene-3,20-dione]	2* mg/day	49	˜10	91	–
CCCCCCC(=O)O[C@]1(C(C)=O)CC[C@H]2[C@@H]3CCC4=CC(=O)CCC4=C3[C@@H](c3ccc(N(C)C)cc3)C[C@@]21C [Compound 69D, 17α-Heptanoyloxy-11β-[4-(N,N-dimethylamino)phenyl]-19-norpregna-4,9-diene-3,20-dione]	inac-	89	–	40	weak
